# In patent US7250445B1, “Anti-oxidant suppository for treating radiation proctopathy and other anorectal disorders” (priority 2005, dated 2007):
# Tests used:
# radiation proctopathy [1] = conditions: topical; cited from earlier work
# wound healing = conditions: following burn injury and surgeries; cited from earlier work
# radiation proctopathy [2] = assay: randomized double-blinded trial of vitamin A versus placebo in patients with radiation proctopathy; type: in vivo, human; conditions: retinol palmitate 10,000 IU by mouth for 90 days versus placebo
# Source text: (§1) The present inventor recently described a dramatic case of the patient with AIDS and anal carcinoma with developed a large radiation-induced anal ulceration with marked debility. The patient required high dose opioid therapy for control of anal pain. […] Radiation proctopathy is a form of injury of the rectum from radiation therapy administered for pelvic cancers such as cancers of the prostate, uterus and ovary. The present inventor recently designed, conducted and published a randomized double-blinded trial comparing vitamin A in the form of retinol palmitate (10,000 IU by mouth for 90 days) to placebo in patients with radiation proctopathy. […] The other form of vitamin A, (beta carotene), when applied topically, have the potential to enhance the effectiveness of retinol palmitate for treating radiation proctopathy and other anorectal disorders.
# [3] = test system: radiation-induced anal ulceration; assay: case of patient with AIDS and anal carcinoma with radiation-induced anal ulceration, oral vitamin A; type: in vivo, human; conditions: single patient
# Source text: as §1
Molecule,efficacy for radiation proctopathy (radiation proctopathy [1]),wound healing (wound healing),rectal symptoms of radiation proctopathy (radiation proctopathy [2]),persistence of healing and symptomatic relief ([3]; after twelve week oral course),"wound healing and symptoms ([3]; twelve week course, orally administered retinol palmitate)"
"Nc1ccc(O)c(C(=O)O)c1 [5-ASA, 5-aminosalicylic acid]",appear to be ineffective,,,,
"CCCCCCCCCCCCCCCC(=O)OC/C=C(C)/C=C/C=C(C)/C=C/C1=C(C)CCCC1(C)C [vitamin A, retinol palmitate]",,accelerate wound healing,significantly reduced rectal symptoms,persisted for more than six months,complete wound healing and symptomatic relief
sucralfate,appear to be ineffective,,,,
